Structures are written as SMILES. pKi: −log10 of the molar value.

One test addresses T1, Dimer of Gag-Pol polyprotein [489-587] (Human immunodeficiency virus 1, UniProt P04585).
T1 construct: 489-587
Briefly: Protease Inhibition Assay. Conditions: pH 5; 22 °C. The source says: (§1) HIV-1 protease was purified and refolded from E. coli inclusion bodies. The substrate used spans the p17-p24 processing site (R-V-S-Q-N-Y-P-I-V-Q-N-K) and was derivatized with biotin and fluorescein isothiocyanate (FITC) at the amino and carboxy termini. In the presence of HIV-l protease, the substrate is rapidly cleaved into two parts. The biotinylated amino terminal fragment binds to the avidin beads while the FITC-containing carboxy1 terminal fragment is removed through the membrane. […] The bound fluorescence is obtained by processing on an IDEXX Screen Machine. Determination of Ki values with this assay requires analysis under conditions in which substrate concentration resides substantially below Km and the inhibitor concentrations greatly exceeds the Ki value and the enzyme concentration.
For `CCCC1(CCc2ccccc2)CC(=O)C(C(c2cccc(NS(=O)(=O)c3ccc(N)cn3)c2)C(C)(C)C)C(=O)O1` (stereo not given) [5-amino-N-(3-{1-[4-hydroxy-2-oxo-6-(2-phenylethyl)-6-propyl-5,6-dihydro-2H-pyran-3-yl]-2,2-dimethylpropyl}phenyl)pyridine-2-sulfonamide], the pKi is 9.70.

The molecule `CCCC1(CCc2ccccc2)CC(=O)C(C(CC)c2cccc(NS(=O)(=O)c3ccc(C#N)cn3)c2)C(=O)O1` (stereo not given) [5-cyano-N-(3-{1-[4-hydroxy-2-oxo-6-(2-phenylethyl)-6-propyl-5,6-dihydro-2H-pyran-3-yl]propyl}phenyl)pyridine-2-sulfonamide] gave a negative logarithm of the Ki (pKi) of 10.00.

Another test has as its target T2, Dimer of Gag-Pol polyprotein [489-587] (Human immunodeficiency virus 1, UniProt P12497).
T2 construct: 489-587
Briefly: Protease Inhibition Assay. The conditions noted are these: pH 5; 22 °C.
From the text: as §1
Molecule `CCCC1(CCC)CC(=O)C(C(c2cccc(NS(=O)(=O)c3cn(C)cn3)c2)C2CC2)C(=O)O1` (stereo not given) [N-[3-[1-(5,6-Dihydro-4-hydroxy-2-oxo-6,6-dipropyl-2H-pyran-3-yl)cyclopropylmethyl]phenyl]-1-methyl-1H-imidazolesulfonamide] gave a negative logarithm of the Ki (pKi) of 9.28.

`CCC(c1cccc(NS(=O)(=O)c2cn(C)cn2)c1)C1C(=O)CC(COCCOCCOC)(COCCOCCOC)OC1=O` (stereo not given) [N-[3-{1-(5,6-Dihydro-4-hydroxy-2-oxo--6,6-bis((2-(2-methoxyethoxy)ethoxy)methyl)-2H-pyran-3-yl)propyl}phenyl]-1-methyl-1H-imidazole-4-sulfonamide] gave a pKi of 7.55.

In turn, `CCCC1(CCc2ccccc2)CC(=O)C(C(c2cccc(NS(=O)(=O)c3ccc(C#N)cc3)c2)C(C)(C)C)C(=O)O1` (stereo not given) [4-cyano-N-(3-{1-[4-hydroxy-2-oxo-6-(2-phenylethyl)-6-propyl-5,6-dihydro-2H-pyran-3-yl]-2,2-dimethylpropyl}phenyl)benzene-1-sulfonamide] showed a pKi of 7.92.

The molecule `CCCC1(CCc2ccc(F)cc2)CC(=O)C(C(CC)c2cccc(NS(=O)(=O)c3cn(C)cn3)c2)C(=O)O1` (stereo not given) [N-[3-{1-(5,6-Dihydro-4-hydroxy-2-oxo--6-(2-(4-fluorophenyl)ethyl)-6-propyl-2H-pyran-3-yl)propyl}phenyl]-1-methyl-1H-imidazole-4-sulfonamide] showed a pKi of 8.52.

Molecule `CCCC1(CCC)CC(=O)C(C(CC)c2cccc(NS(=O)(=O)c3cn(C)cn3)c2)C(=O)O1` (stereo not given) [N-[3-[1-(5,6-Dihydro-4-hydroxy-2-oxo-6,6-dipropyl-2H-pyran-3-yl)propyl]phenyl]-1-methyl-1H-imidazolesulfonamide] had a pKi of 8.74.

`CCCC1(CCc2ccccc2)CC(=O)C(Cc2cccc(NS(=O)(=O)c3cn(C)cn3)c2)C(=O)O1` (stereo not given) [N-(3-[1-(5,6-Dihydro-4-hydroxy-2-oxo-6-phenethyl-6-propyl-2H-pyran-3-yl)methyl]phenyl)-1-methyl-1H-imidazole-4-sulfonamide]: the pKi is 7.89.

`CCCC1(CCC)CC(=O)C(C(c2cccc(NS(=O)(=O)c3cn(C)cn3)c2)C(C)(C)C)C(=O)O1` (stereo not given) [N-[3-{1-(5,6-Dihydro-4-hydroxy-2-oxo-6,6-dipropyl-2H-pyran-3-yl)-2,2-dimethylpropyl)phenyl]-1-methyl-1H-imidazole-4-sulfonamide] showed a negative logarithm of the Ki (pKi) of 9.06.

Molecule `CCCC1(CCc2ccccc2)CC(=O)C(C(c2cccc(NS(=O)(=O)c3cn(C)cn3)c2)C(C)(C)C)C(=O)O1` (stereo not given) [N-[3-{1-(5,6-Dihydro-4-hydroxy-2-oxo-6-phenethyl-6-propyl-2H-pyran-3-yl)-2,2-dimethylpropyl)phenyl]-1-methyl-1H-imidazole-4-sulfonamide] gave a pKi of 8.92.

Take `CCCC1(CCc2ccccc2)CC(=O)C(C(CC)c2cccc(NS(=O)(=O)CCC)c2)C(=O)O1` (stereo not given) [N-(3-{1-[4-hydroxy-2-oxo-6-(2-phenylethyl)-6-propyl-5,6-dihydro-2H-pyran-3-yl]propyl}phenyl)propane-1-sulfonamide]: the pKi is under 6.00.

Consider `CCCC1(CCc2ccccc2)CC(=O)C(C(CC)c2cccc(NS(=O)(=O)c3ccc(C#N)cc3)c2)C(=O)O1` (stereo not given) [4-cyano-N-(3-{1-[4-hydroxy-2-oxo-6-(2-phenylethyl)-6-propyl-5,6-dihydro-2H-pyran-3-yl]propyl}phenyl)benzene-1-sulfonamide], for which the pKi is 8.09.

For `CCCC1(CCc2ccccc2)CC(=O)C(C(c2cccc(NS(=O)(=O)c3ccc(C#N)cn3)c2)C(C)(C)C)C(=O)O1` (stereo not given) [N-(3-[1-(5,6-Dihydro-4-hydroxy-2-oxo-6-phenethyl-6-propyl-2H-pyran-3-yl)-2,2-dimethylpropyl]phenyl)-5-cycano-2-pyridinesulfonamide], the pKi is 8.72.

In turn, `CCC(c1cccc(NS(=O)(=O)c2cn(C)cn2)c1)C1C(=O)CC2(OC1=O)C1CC3CC(C1)CC2C3` (stereo not given) [N-[3-(1-{4'-hydroxy-3',6'-dihydrospiro[adamantane-2,2'-pyran]-6'-one}propyl)phenyl]-1-methyl-1H-imidazole-4-sulfonamide] showed a pKi of 7.64.

`CCCC1(CCc2ccccc2)CC(=O)C(C(c2cccc(NS(=O)(=O)c3ccc(C(F)(F)F)cn3)c2)C(C)(C)C)C(=O)O1` (stereo not given) [N-(3-[1-(5,6-Dihydro-4-hydroxy-2-oxo-6-phenethyl-6-propyl-2H-pyran-3-yl)-2,2-dimethylpropyl]phenyl)-5-trifluoromethyl-2-pyridinesulfonamide] showed a pKi of 8.37.

In turn, `CCC(c1cccc(NS(=O)(=O)c2cn(C)cn2)c1)C1C(=O)CC(CCc2ccccc2)(CCc2ccccc2)OC1=O` (stereo not given) [N-(3-{1-[4-hydroxy-2-oxo-6,6-bis(2-phenylethyl)-5,6-dihydro-2H-pyran-3-yl]propyl}phenyl)-1-methyl-1H-imidazole-4-sulfonamide] showed a pKi of 9.00.

The molecule `CCC(c1cccc(NS(=O)(=O)c2cn(C)cn2)c1)C1C(=O)CC(CCC2CC2)(CCC2CC2)OC1=O` (stereo not given) [N-(3-{1-[6,6-bis(2-cyclopropylethyl)-4-hydroxy-2-oxo-5,6-dihydro-2H-pyran-3-yl]propyl}phenyl)-1-methyl-1H-imidazole-4-sulfonamide] had a pKi of 8.77.

On to `CCCC1(CCc2ccccc2)CC(=O)C(C(c2cccc(NS(=O)(=O)c3cn(C)cn3)c2)C2CC2)C(=O)O1` (stereo not given) [N-[3-[1-(5,6-Dihydro-4-hydroxy-2-oxo-6-phenethyl-6-propyl-2H-pyran-3-yl)cyclopropylmethyl]phenyl]-1-methyl-1H-imidazole-4-sulfonamide], for which the pKi is 9.15.

The molecule `CCC(c1cccc(NS(=O)(=O)c2cn(C)cn2)c1)C1C(=O)CC(CC(C)C)(CC(C)C)OC1=O` (stereo not given) [N-(3-{1-[4-hydroxy-6,6-bis(2-methylpropyl)-2-oxo-5,6-dihydro-2H-pyran-3-yl]propyl}phenyl)-1-methyl-1H-imidazole-4-sulfonamide] showed a pKi of 8.52.

Molecule `CCCC1(CCc2ccccc2)CC(=O)C(C(c2cccc(NS(=O)(=O)c3ccc([N+](=O)[O-])cn3)c2)C(C)(C)C)C(=O)O1` (stereo not given) [N-(3-{1-[4-hydroxy-2-oxo-6-(2-phenylethyl)-6-propyl-5,6-dihydro-2H-pyran-3-yl]-2,2-dimethylpropyl}phenyl)-5-nitropyridine-2-sulfonamide] showed a pKi of 8.64.

The values above are taken from BindingDB's records for doi:10.1021/jm9802158 (Upjohn, 1998).
